Source: BindingDB's records for doi:10.1111/cbdd.12142 (Delhi Institute of Pharmaceutical Sciences and Research, 2013)

Each compound was assayed against Dipeptidyl peptidase 4 (Homo sapiens, UniProt P27487) (assay: In vitro DPP IV enzyme inhibition assay). Conditions: 37 °C.
Method: Following the manufacturer's guidelines, the assay was performed using 96-well flat-bottomed microtitre plate followed by addition of assay buffer, DPP IV enzyme and chromogenic substrate (HGly-Pro-pNA). Test compounds were dissolved in DMSO at different concentrations of 25, 50, 100, 200 µg/mL, and 20 µL were added to each well after further dilutions. The plate was incubated at 37°C for 10 min and read continuously at A-405 nm.

Sequence of Dipeptidyl peptidase 4 (P27487 whole entry): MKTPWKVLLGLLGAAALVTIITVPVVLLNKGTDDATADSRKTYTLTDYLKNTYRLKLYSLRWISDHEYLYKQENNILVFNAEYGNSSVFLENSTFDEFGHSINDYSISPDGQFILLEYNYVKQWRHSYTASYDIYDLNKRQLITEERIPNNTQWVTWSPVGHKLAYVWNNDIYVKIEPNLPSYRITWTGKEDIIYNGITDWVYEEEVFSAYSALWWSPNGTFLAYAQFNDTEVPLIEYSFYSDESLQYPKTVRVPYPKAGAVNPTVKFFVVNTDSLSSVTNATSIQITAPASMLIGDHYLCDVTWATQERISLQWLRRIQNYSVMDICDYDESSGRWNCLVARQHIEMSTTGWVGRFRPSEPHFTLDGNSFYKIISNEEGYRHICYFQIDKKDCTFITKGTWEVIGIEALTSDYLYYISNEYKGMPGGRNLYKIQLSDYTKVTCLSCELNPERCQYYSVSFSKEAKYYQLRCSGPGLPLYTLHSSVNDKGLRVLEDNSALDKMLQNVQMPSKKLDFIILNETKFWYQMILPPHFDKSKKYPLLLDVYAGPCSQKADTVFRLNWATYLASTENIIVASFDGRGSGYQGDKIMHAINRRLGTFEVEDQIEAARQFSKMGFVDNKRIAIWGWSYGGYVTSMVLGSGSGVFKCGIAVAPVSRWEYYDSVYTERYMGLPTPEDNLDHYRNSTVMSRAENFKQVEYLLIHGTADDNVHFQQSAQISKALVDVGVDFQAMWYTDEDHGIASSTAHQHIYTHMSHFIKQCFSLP

Compound | IC50 [µM]
O=C(CN1CCCC1C(=O)N1CCC(F)C1)N1CCCCCC1 (centres undefined) [1‐(azepan‐1‐yl)‐2‐[2‐(3‐fluoropyrrolidine‐1‐ carbonyl)pyrrolidin‐1‐yl]ethan‐1‐one] | 3.47
O=C(C1CCCN1CCN1CCCCC1)N1CCC(F)C1 (centres undefined) [1‐{2‐[2‐(3‐fluoropyrrolidine‐1‐carbonyl)pyrrolidin‐1‐ yl]ethyl}piperidine] | 6.49
O=C(CN1CCCC1C(=O)N1CCC(F)C1)N1CCCCC1 (centres undefined) [2‐[2‐(3‐fluoropyrrolidine‐1‐carbonyl)pyrrolidin‐1‐ yl]‐1‐(piperidin‐1‐yl)ethan‐1‐one] | 7.88
O=C(CN1CCCC1C(=O)N1CCC(F)C1)N1CCCC1 (centres undefined) [2‐[2‐(3‐fluoropyrrolidine‐1‐carbonyl)pyrrolidin‐1‐ yl]‐1‐(pyrrolidin‐1‐yl)ethan‐1‐one] | 16.7
O=C(CN1CCCC1C(=O)N1CCC(F)C1)N1CCN(c2ccccn2)CC1 (centres undefined) [2‐[2‐(3‐fluoropyrrolidine‐1‐carbonyl)pyrrolidin‐1‐ yl]‐1‐[4‐(pyridin‐2‐yl)piperazin‐1‐yl]ethan‐1‐one] | 0.83
O=C(CN1CCCC1C(=O)N1CCC(F)C1)N1CCN(c2ncccn2)CC1 (centres undefined) [2‐[2‐(3‐fluoropyrrolidine‐1‐carbonyl)pyrrolidin‐1‐ yl]‐1‐[4‐(pyrimidin‐2‐yl)piperazin‐1‐yl]ethan‐1‐ one] | 0.43
O=C(C1CCCN1)N1CCC(F)C1 (centres undefined) [3‐fluoro‐1‐(pyrrolidine‐2‐carbonyl)pyrrolidine] | 4.27
CCN(CC)CCN1CCCC1C(=O)N1CCC(F)C1 (centres undefined) [diethyl({2‐[2‐(3‐fluoropyrrolidine‐1‐ carbonyl)pyrrolidin‐1‐yl]ethyl})amine] | 23.8
CN(C)CCN1CCCC1C(=O)N1CCC(F)C1 (centres undefined) [{2‐[2‐(3‐fluoropyrrolidine‐1‐carbonyl)pyrrolidin‐1‐ yl]ethyl}dimethylamine] | 30.2
